This data set in a line: Side effects compared with quinidine and lidocaine. Conditions: as compared to quinidine and lidocaine.

For `CC(C)N(CCOc1cc(Cl)cc(Cl)c1)C(=O)NCCN(C)C.O=C(O)/C=C\C(=O)O` [Example 3, N-[2-(3,5-Dichlorophenoxy)ethyl]-N'-[2-(dimethylamino)ethyl]-N-(1-methylethyl)urea, maleate [1:1]], the CNS side effects entry is “minimal CNS side effects”.
